Structures are written as SMILES. pIC50: −log10 of the molar value. Some results are limits rather than exact numbers.

T1 sequence (Q9NZ08 37-941): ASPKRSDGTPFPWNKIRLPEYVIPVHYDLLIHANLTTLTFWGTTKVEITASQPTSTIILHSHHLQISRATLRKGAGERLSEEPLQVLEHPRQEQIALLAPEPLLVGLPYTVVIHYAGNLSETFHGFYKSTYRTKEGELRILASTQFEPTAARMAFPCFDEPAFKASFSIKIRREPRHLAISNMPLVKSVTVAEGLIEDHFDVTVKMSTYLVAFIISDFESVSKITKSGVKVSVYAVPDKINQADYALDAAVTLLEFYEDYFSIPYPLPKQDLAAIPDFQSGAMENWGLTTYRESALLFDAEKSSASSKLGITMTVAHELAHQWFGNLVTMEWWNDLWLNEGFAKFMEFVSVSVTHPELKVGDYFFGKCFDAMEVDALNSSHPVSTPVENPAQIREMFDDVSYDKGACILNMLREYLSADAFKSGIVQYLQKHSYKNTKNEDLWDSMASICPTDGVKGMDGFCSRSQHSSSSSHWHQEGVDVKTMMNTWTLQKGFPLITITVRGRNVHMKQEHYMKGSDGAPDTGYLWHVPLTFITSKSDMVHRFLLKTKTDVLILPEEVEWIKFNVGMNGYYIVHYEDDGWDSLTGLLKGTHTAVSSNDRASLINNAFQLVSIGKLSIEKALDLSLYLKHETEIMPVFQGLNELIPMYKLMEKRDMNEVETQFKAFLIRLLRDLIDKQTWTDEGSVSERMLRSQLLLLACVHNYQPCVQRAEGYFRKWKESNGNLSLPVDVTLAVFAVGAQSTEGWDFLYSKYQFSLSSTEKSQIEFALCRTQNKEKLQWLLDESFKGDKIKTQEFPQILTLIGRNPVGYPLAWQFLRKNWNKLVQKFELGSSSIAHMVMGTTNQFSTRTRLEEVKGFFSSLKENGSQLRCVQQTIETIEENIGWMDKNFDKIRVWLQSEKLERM

The assay concerns the target T1, Purified ERAP1 (37-941)-10His (ERAP1) (Homo sapiens, UniProt Q9NZ08).
T1 construct: Purified ERAP1 (37-941)-10His (ERAP1)
Kind of assay: ERAP1 mediated hydrolysis of an amide substrate (10-mer inhibition assay), biochemical system. The following applies: 10-mer substrate, 23° C., 1 h, excitation 279 nm / emission 355 nm; read-out: IC50 vs Decapeptide WRVYEKC(Dnp)ALK-acid (where Dnp is Dinitrophenyl maleimide) (10-mer).
For the compound `COc1ccc(C(=O)O)cc1S(=O)(=O)Nc1cc(-n2cnnn2)ccc1N1CCC[C@@H](F)C1` [Example 265, I-3-(N-(2-(3-fluoropiperidin-1-yl)-5-(tetrazol-1-yl)phenyl)sulfamoyl)-4-methoxybenzoic acid], the pIC50 (in general, the IC50 on a negative log10 scale, so that one unit is a factor of ten) is more than 6.30.
Consider `CCc1ccc(C(=O)O)cc1S(=O)(=O)Nc1cc(-n2cnnn2)ccc1N1CCC[C@@H](F)C1` [Example 266, I-4-ethyl-3-(N-(2-(3-fluoropiperidin-1-yl)-5-(tetrazol-1-yl)phenyl)sulfamoyl)benzoic acid], for which the pIC50 is more than 6.30.
Regarding `O=C(O)c1ccc(C2CC2)c(S(=O)(=O)Nc2cc(C(F)(F)F)ccc2N2CCCCC2)c1` [Example 267, 4-cyclopropyl-3-(N-(2-(piperidin-1-yl)-5-(trifluoromethyl)phenyl)sulfamoyl)benzoic acid], the pIC50 is more than 6.30.
For `CCCCc1ccc(C(=O)O)cc1S(=O)(=O)Nc1cc(C(F)(F)F)ccc1N1CCCCC1` [Example 268, 4-butyl-3-(N-(2-(piperidin-1-yl)-5-(trifluoromethyl)phenyl)sulfamoyl)benzoic acid], the pIC50 is more than 6.30.
As for `COc1ccc(C(=O)O)cc1S(=O)(=O)Nc1cc(S(C)(=O)=O)ccc1N1CCC[C@@H](F)C1` [Example 269, I-3-(N-(2-(3-fluoropiperidin-1-yl)-5-(methylsulfonyl)phenyl)sulfamoyl)-4-methoxybenzoic acid], the figure is more than 6.30; as for `CCc1ccc(C(=O)O)cc1S(=O)(=O)Nc1cc(C(F)(F)F)ccc1N1CC(C)(O)C1` [Example 270, 4-ethyl-3-(N-(2-(3-hydroxy-3-methylazetidin-1-yl)-5-(trifluoromethyl)phenyl)sulfamoyl)benzoic acid], more than 5.30; as for `O=C(O)c1ccc(-n2cccn2)c(S(=O)(=O)Nc2cc(C(F)(F)F)ccc2N2CCCCC2)c1` [Example 271, 3-(N-(2-(piperidin-1-yl)-5-(trifluoromethyl)phenyl)sulfamoyl)-4-(pyrazol-1-yl)benzoic acid], more than 5.30.
Next, `O=C(O)c1ccc(C2CCO2)c(S(=O)(=O)Nc2cc(C(F)(F)F)ccc2N2CCCCC2)c1` (stereo not drawn) [Example 272, 4-(oxetan-2-yl)-3-(N-(2-(piperidin-1-yl)-5-(trifluoromethyl)phenyl)sulfamoyl)benzoic acid]: more than 6.30; `CCc1ccc(C(=O)O)cc1S(=O)(=O)Nc1cc(-c2cn(C)nn2)ccc1N1CCCCC1` [Example 273, 4-ethyl-3-(N-(5-(1-methyl-1,2,3-triazol-4-yl)-2-(piperidin-1-yl)phenyl)sulfamoyl)benzoic acid]: more than 6.30.
As for `CCc1ccc(C(=O)O)cc1S(=O)(=O)Nc1cc(-c2cnnn2C)ccc1N1CCCCC1` [Example 274, 4-ethyl-3-(N-(5-(1-methyl-1,2,3-triazol-5-yl)-2-(piperidin-1-yl)phenyl)sulfamoyl)benzoic acid], the pIC50 is more than 6.30.
As for `CCc1ccc(C(=O)O)cc1S(=O)(=O)Nc1cc(-c2cncs2)ccc1N1CCCCC1` [Example 275, 4-ethyl-3-(N-(2-(piperidin-1-yl)-5-(thiazol-5-yl)phenyl)sulfamoyl)benzoic acid], the pIC50 is more than 6.30.
As for `CCc1ccc(C(=O)O)cc1S(=O)(=O)Nc1cc(-c2cc[nH]n2)ccc1N1CCCCC1` [Example 276, 4-ethyl-3-(N-(2-(piperidin-1-yl)-5-(pyrazol-3-yl)phenyl)sulfamoyl)benzoic acid], the figure is more than 6.30; as for `CCc1ccc(C(=O)O)cc1S(=O)(=O)Nc1cc(-c2cnn(C)c2)ccc1N1CCCCC1` [Example 277, 4-ethyl-3-(N-(5-(1-methylpyrazol-4-yl)-2-(piperidin-1-yl)phenyl)sulfamoyl)benzoic acid], more than 6.30.
In the case of `CCc1ccc(C(=O)O)cc1S(=O)(=O)Nc1cc(-c2nncs2)ccc1N1CCCCC1` [Example 278, 4-ethyl-3-(N-(2-(piperidin-1-yl)-5-(1,3,4-thiadiazol-2-yl)phenyl)sulfamoyl)benzoic acid], the pIC50 is more than 6.30.
With `CCc1ccc(C(=O)O)cc1S(=O)(=O)Nc1cc(-c2cnoc2C)ccc1N1CCCCC1` [Example 279, 4-ethyl-3-(N-(5-(5-methylisoxazol-4-yl)-2-(piperidin-1-yl)phenyl)sulfamoyl)benzoic acid], the pIC50 is more than 6.30.
For the compound `CCc1ccc(C(=O)O)cc1S(=O)(=O)Nc1cc(-c2ccn(C)n2)ccc1N1CCCCC1` [Example 280, 4-ethyl-3-(N-(5-(1-methylpyrazol-3-yl)-2-(piperidin-1-yl)phenyl)sulfamoyl)benzoic acid], the pIC50 is more than 6.30.
For `CCc1ccc(C(=O)O)cc1S(=O)(=O)Nc1cc(-c2ccnn2C)ccc1N1CCCCC1` [Example 281], the pIC50 was more than 6.30.
Next, `CCc1ccc(C(=O)O)cc1S(=O)(=O)Nc1cc(-c2cnc(C)s2)ccc1N1CCCCC1` [Example 282, 4-ethyl-3-(N-(5-(2-methylthiazol-5-yl)-2-(piperidin-1-yl)phenyl)sulfamoyl)benzoic acid]: more than 6.30.
With `CCc1ccc(C(=O)O)cc1S(=O)(=O)Nc1cc(-n2cnnn2)ccc1N1CC(O)C1` [Example 283, 4-ethyl-3-(N-(2-(3-hydroxyazetidin-1-yl)-5-(tetrazol-1-yl)phenyl)sulfamoyl)benzoic acid], the pIC50 is more than 6.30.
For `CCc1ccc(C(=O)O)cc1S(=O)(=O)Nc1cc(-c2ccns2)ccc1N1CCCCC1` [Example 286, 4-ethyl-3-(N-(5-(isothiazol-5-yl)-2-(piperidin-1-yl)phenyl)sulfamoyl)benzoic acid], the pIC50 was more than 6.30.
As for `CCc1ccc(C(=O)O)cc1S(=O)(=O)Nc1cc(-c2cncn2C)ccc1N1CCCCC1` [Example 287, 4-ethyl-3-(N-(5-(1-methylimidazol-5-yl)-2-(piperidin-1-yl)phenyl)sulfamoyl)benzoic acid], the figure is more than 6.30; as for `CCc1ccc(C(=O)O)cc1S(=O)(=O)Nc1cc(-c2ncnn2C)ccc1N1CCCCC1` [Example 288, 4-ethyl-3-(N-(5-(1-methyl-1,2,4-triazol-5-yl)-2-(piperidin-1-yl)phenyl)sulfamoyl)benzoic acid], more than 6.30.
As for `CCc1ccc(C(=O)O)cc1S(=O)(=O)Nc1cc(-c2ncco2)ccc1N1CCCCC1` [Example 289, 4-ethyl-3-(N-(5-(oxazol-2-yl)-2-(piperidin-1-yl)phenyl)sulfamoyl)benzoic acid], the figure is more than 6.30; as for `CCc1ccc(C(=O)O)cc1S(=O)(=O)Nc1cc(-c2cnccn2)ccc1N1CCCCC1` [Example 290, 4-ethyl-3-(N-(2-(piperidin-1-yl)-5-(pyrazin-2-yl)phenyl)sulfamoyl)benzoic acid], more than 6.30; as for `CCc1ccc(C(=O)O)cc1S(=O)(=O)Nc1cc(-c2c(C)noc2C)ccc1N1CCCCC1` [Example 291, 3-(N-(5-(3,5-dimethylisoxazol-4-yl)-2-(piperidin-1-yl)phenyl)sulfamoyl)-4-ethylbenzoic acid], more than 6.30.
As for `CCc1ccc(C(=O)O)cc1S(=O)(=O)Nc1cc(-c2nnc(C)o2)ccc1N1CCCCC1` [Example 292, 4-ethyl-3-(N-(5-(5-methyl-1,3,4-oxadiazol-2-yl)-2-(piperidin-1-yl)phenyl)sulfamoyl)benzoic acid], the pIC50 was more than 6.30.
As to `CCc1ccc(C(=O)O)cc1S(=O)(=O)Nc1cc(-c2cccnn2)ccc1N1CCCCC1` [Example 293, 4-ethyl-3-(N-(2-(piperidin-1-yl)-5-(pyridazin-3-yl)phenyl)sulfamoyl)benzoic acid], the pIC50 is more than 6.30.

Source of the values: patent US12485169B2, “Compounds” (GREY WOLF THERAPEUTICS LIMITED, priority 2018, dated 2025).
